According to US11123349B2, “Method of treatment” (The University of Melbourne, priority 2017, dated 2021):
pIC50: −log10 of the molar value. ≈ marks a conversion by molar mass, not a printed value. Like-named read-outs stand apart in the source and are kept apart here.

Columns and labels:
[1] = tested on: TNF production from whole blood stimulated with LPS; experiment: Whole blood assay: LPS-induced TNF-α production (L929 fibrosarcoma cell bioassay); format: cell-based, horse
Procedure: (§1) A whole blood assay was used to assess the effects of rolipram and doramapimod on cytokine production from leukocytes (white blood cells) in response to bacterial lipopolysaccharide (endotoxin).
(§2) Blood samples (10 mL; sodium citrate anticoagulant) were obtained from the six normal horses, diluted 1:1 with RPMI 1640 cell culture medium and aliquoted into 15×1 mL aliquots. Serial dilutions of rolipram and doramapimod were made from 10^−2M stock solutions in phosphate-buffered saline and DMSO, respectively, and 10 μL added to […] give final concentrations ranging from 10^−10-10^−4 Molar. The samples were then incubated with 100 ng/mL purified bacterial lipopolysaccharide (endotoxin derived from E. Coli O55:B5; purified to remove DNA and protein contaminants). After incubation for 18 hours at 37° C. in a shaking incubator, samples were centrifuged at 300 g and supernatants stored at −80° C. for cytokine analysis.
The proinflammatory cytokine, TNF-α, was measured using a L929 fibrosarcoma cell bioassay. […] The yellow tetrazole dye, 3-(4,5-dimethylthiazol-2-yl)-2,5-diphenyltetrazolium bromide (MTT), is reduced to a purple formazan compound in living cells, which is then quantified using a colorimetric plate reader (absorbance read at 570 nm with reference wavelength of 650 nm). […]
(§3) The data are expressed as % inhibition of LPS-induced cytokine production at each of the drug concentrations. […]

[2] = tested on: IL-1 production from whole blood stimulated with LPS; experiment: Whole blood assay: LPS-induced IL-1β production (ELISA); format: cell-based, horse
Procedure: as §1, §2
Plasma IL-1β concentrations were measured using an equine-specific enzyme linked immunosorbent assay (ELISA; Horse IL-1β ELISA kit, Bethyl Laboratories, Montgomery, Tex., USA). […] The optical density (OD) values of samples were determined at 450 nm using an ELISA plate reader (BioTek Synergy H1) and concentrations determined using GENS Software (version 2.00.17).
as §3

[3] = Solubility / formulation for intravenous administration; format: physicochemical
Procedure: Solubility of the drugs was tested to determine their suitability for intravenous administration (this is the route of choice for the treatment of endotoxemia).

[4] = equine whole blood, LPS, 18 hours

pIC50 ([1]; Equus caballus, L929, equine whole blood diluted 1:1 with RPMI 1640, LPS, 18 hours at 37° C., read-out: IC50, inhibition of TNFa production): 6.19 | pIC50 ([2]; Equus caballus, equine whole blood diluted 1:1 with RPMI 1640, LPS, 18 hours at 37° C., read-out: IC50, inhibition of IL-1 production): 5.99 | solubility ([3]; 10% DMSO, aqueous with cosolvent or surfactant or cyclodextrin, read-out: soluble in 10% DMSO to): 1000 µg/mL (≈ 3630 µM) | solubility ([3]; water, read-out: water soluble to): 200 µg/mL (≈ 726 µM)
SMILES: COc1ccc(C2CNC(=O)C2)cc1OC1CCCC1 (stereo not drawn) [rolipram]
inhibition of TNFa production at high concentrations [1, 4]: ~100% | maximum inhibition of IL-1 production [2, 4]: 39.5±7.1%
